US20070293443A1, “Composition for Accelerating Calcium Absorption” (Good Shusei Co. Ltd, priority 2004, published 2007)
“Also recorded” adds a separate entry of the source.

Experiments:
[1] = tested on: experimental osteoporosis induced by calcium-deficient diet; test: Experimental osteoporosis induced by calcium-deficient diet (Example 7); type: in vivo, mice; settings: dose 2.5 mmol/kg oral daily
Description: (§1) Six-week old female ICR mice were divided into five groups (Groups I to V, 10 animals in each group), and fed calcium-deficient feed (calcium carbonate-free AIN 93M, Oriental Yeast Co., Ltd.) for 4 weeks to induce osteoporosis condition. Calcium L-arabonate was dissolved in water and orally administered daily in a dose of 1.25 mmol/kg (Group II) or 2.5 mmol/kg (Group III). The control group for pathological condition (Group I) was administered with water in the same manner. As a comparative group, a group administered with calcium D-gluconate (dose 2.5 mmol/kg (Group IV)) was provided. A normal control group (Group V) was separately provided and was given the normal feed (AIN 93M, Oriental Yeast Co., Ltd.). After administering the test substance on the second week and fourth week of initiation of the test, the animals were transferred to a metabolic cage, and feces were collected for 24 hours. The amount of calcium and phosphorus excreted in the feces were measured, and the absorption rates of ingested calcium and phosphorous in the digestive tract were determined. After completion of the test period, the animals of the respective groups were sacrificed to remove both femurs and tibiae. The femurs and tibiae were removed muscles etc., then immersed in 70% ethanol overnight, and dried at 60° C. for 24 hours to be used as samples for analysis. The measurement items were dry weight, ash content, calcium content, and phosphorus content. The ash content was measured by an ashing method at 550° C. for 18 hours, the calcium content was measured by an OCPC method (Calcium C-Test Wako, Wako Pure Chemical Industries, Ltd.), and the phosphorus content was measured by a p-methylaminophenol reduction method (Phospho C-Test Wako, Wako Pure Chemical Industries, Ltd.). The obtained data were analyzed by ANOVA and the Dunnett's method, and a risk ratio of 5% or less was considered as significant difference.

[2] = tested on: experimental osteoporosis induced by combination of ovary excision and calcium-deficient diet; test: Experimental osteoporosis due to combination of ovary excision and calcium-deficient diet (Example 8); type: in vivo, mice; settings: dose 2.5 mmol/kg oral daily
Description: as §1
Six-weeks old female ICR mice excised their ovaries were divided into 5 groups (Groups I to V, 10 animals in each group), and fed calcium-deficient feed (calcium carbonate-free AIN 93M, Oriental Yeast Co., Ltd.) for 4 weeks to induce osteoporosis condition. Calcium L-arabonate was dissolved in water, and orally administered daily in a dose of 1.25 mmol/kg (Group II) or 2.5 mmol/kg (Group III). The control group for pathological condition (Group I) was administered with water in the same manner. As a comparative group, a group administered with calcium D-gluconate (dose 2.5 mmol/kg (Group IV)) was provided. Also, a group excised ovaries but given with normal feed (AIN 93M, Oriental Yeast Co., Ltd.) (Group V) was separately provided. The measurement of the absorption rate of calcium in the digestive tract, and the analysis of femur and tibia were performed in the same manner as in Example 7.

[3] = tested on: dietary calcium absorption; test: Dietary calcium absorption accelerating effect, blood calcium level after oral calcium carbonate with test substance (Example 1); type: in vivo; settings: male ICR mice, oral 5 mmol/kg calcium carbonate alone or with test substance (1.25-10.0 mmol/kg), up to 4 hours after administration
Excerpt: For the experiment, 11-weeks old male ICR mice were used after overnight fasting. During the test period, the mice were given deionized water only. […] The doses of L-arabonic acid administered in combination were 1.25 mmol/kg (Group II), 2.5 mmol/kg (Group III), 5.0 mmol/kg (Group IV), and 10.0 mmol/kg (Group V), and the doses of D-gluconic acid were 2.5 mmol/kg (Group VI), 5.0 mmol/kg (Group VII), and 10.0 mmol/kg (Group VIII). […] The blood calcium level was quantified by a chelate colorimetric method (ortho-cresolphthalein complexone (OCPC) method). The obtained data were analyzed by a paired t-test, and a risk ratio of 5% or less was considered as significant difference.

[4] = tested on: dietary calcium absorption; test: Dietary calcium absorption accelerating effect of sodium L-arabonate in mice fed calcium-deficient diet (Example 2); type: in vivo; settings: for Ca level in blood, 0 min: 0 min (before administration); for Ca level in blood, 0 min / Ca level in blood, 2 hrs / Ca level in blood, 4 hrs: oral 5 mmol/kg calcium carbonate alone (Group I) or with 5 mmol/kg sodium L-arabonate (Group II), n = 4; for Ca level in blood, 2 hrs: 2 hrs after administration; for Ca level in blood, 4 hrs: 4 hrs after administration; for change in blood calcium level: up to 4 hours after oral administration, mice on calcium-deficient diet
Description: Eight-week old male ICR mice were used and fed calcium-deficient diet and deionized water for one week. The mice were fasted overnight before the test, and were given deionized water only during the test period. […] The obtained data were analyzed by a paired t-test, and a risk ratio of 5% or less was considered as significant difference.

[5] = Blood calcium level after administration of calcium L-arabonate (Example 5); type: in vivo; settings: male ICR mice, oral calcium L-arabonate 1.25, 2.5, 5.0 mmol/kg or calcium carbonate 5 mmol/kg, up to 4 hours
Description: For the experiment, 11-weeks old male ICR mice were used after overnight fasting. During the test period, the mice were given deionized water only. The mice were divided into four groups (Groups I to IV, 5 animals in each group), and the test substance was orally administered as a solution in deionized water. […] The blood calcium level was quantified by a chelating calorimetric method (ortho-cresolphthalein complexone (OCPC) method). The obtained data were analyzed by a paired t-test, and a risk ratio of 5% or less was considered as significant difference.

[6] = Kinetics of L-arabonic acid in the digestive tract of rat (Example 3); type: in vivo
Description: For the experiment, 7 to 11-weeks old male Wistar rats were used after overnight fasting. After orally administering 5 mmol/kg of L-arabonic acid, the animals were entered into a metabolic cage, and were sacrificed after 2 hours, after 6 hours, and after 24 hours, to remove the digestive tracts. The contents in each site of the digestive tract were recovered respectively, and the amount of unaltered L-arabonic acid was quantified by the HPLC method. The entire amounts of urine and feces up to the respective time points were recovered, and the amounts of L-aranobic acid were quantified in the same manner. During the test period, the animals were given deionized water only.

[7] = tested on: mice; test: Single oral administration safety test, LD50; type: in vivo
Excerpt: As a result of a single oral test using mice, it was confirmed that the LD50 value of L-arabonic acid was about 10 g/kg, and thus L-arabonic acid was a material having high safety.
While it was discovered in Example 5 that the calcium moiety of calcium L-arabonate used in the invention was extremely readily-absorbable, it was shown in Example 6 that the L-arabonic acid moiety was extremely poorly absorbed in the digestive tract.

With “calcium D-gluconate [reference compound]” the “absorption rate of calcium in the digestive tract, fourth week” value ([1]; fourth week, calcium-deficient diet mice) was 59.8%, the “absorption rate of calcium in the digestive tract, second week” value ([1]; second week, calcium-deficient diet mice) was 74.2% and the “Femur Ash content” value ([1]; femur, 4 weeks) was 25 ± 1.3 mg. For the same compound, the “Femur Ca content” value ([1]; femur, 4 weeks) was 8.7 ± 0.42 mg, the “Femur P content” value ([1]; femur, 4 weeks) was 4.7 ± 0.21 mg and the “Femur Weight” value ([1]; femur, 4 weeks) was 46 ± 2.1 mg. For the same compound, the “Tibia Ash content” value ([1]; tibia, 4 weeks) was 23 ± 1.2 mg, the “Tibia Ca content” value ([1]; tibia, 4 weeks) was 8.3 ± 0.34 mg and the “Tibia P content” value ([1]; tibia, 4 weeks) was 4.3 ± 0.16 mg. For the same compound, the “Tibia Weight” value ([1]; tibia, 4 weeks) was 44 ± 1.1 mg, the “absorption rate of calcium in the digestive tract, fourth week” value ([2]; fourth week, ovary-excised mice on calcium-deficient diet) was 45.1% and the “absorption rate of calcium in the digestive tract, second week” value ([2]; second week, ovary-excised mice on calcium-deficient diet) was 61.1%. The “Femur Ash content” value ([2]; femur, 4 weeks) was 27 ± 0.4 mg, the “Femur Ca content” value ([2]; femur, 4 weeks) was 9.4 ± 0.18 mg and the “Femur P content” value ([2]; femur, 4 weeks) was 4.8 ± 0.14 mg. The “Femur Weight” value ([2]; femur, 4 weeks) was 50 ± 1.2 mg, the “Tibia Ash content” value ([2]; tibia, 4 weeks) was 24 ± 0.5 mg and the “Tibia Ca content” value ([2]; tibia, 4 weeks) was 8.6 ± 0.21 mg. The “Tibia P content” value ([2]; tibia, 4 weeks) was 4.4 ± 0.08 mg and the “Tibia Weight” value ([2]; tibia, 4 weeks) was 46 ± 1.0 mg.

With `O=C(O)[C@H](O)[C@@H](O)[C@H](O)[C@H](O)CO` [D-gluconic acid, reference compound] the “change in blood calcium level” value [3] was “not observed to have significant increases in the blood calcium level”.

For `O=C([O-])[O-].[Ca+2]` [calcium carbonate, reference compound], the “change in blood calcium level” value [3] was “did not show any increase in the blood calcium level”, the “Ca level in blood, 0 min” value [4] was 4.67 ± 0.297 mg/dL and the “Ca level in blood, 2 hrs” value [4] was 4.58 ± 0.143 mg/dL. The “Ca level in blood, 4 hrs” value [4] was 4.82 ± 0.189 mg/dL, the “change in blood calcium level” value [4] was “did not show any increase in the blood calcium level” and the “change in blood calcium level” value [5] was “did not show any increase in the blood calcium level”.

For `O=C(O)[C@H](O)[C@@H](O)[C@@H](O)CO` [L-arabonic acid], the “change in blood calcium level” value [3] was “dose-dependent and significant increases in the blood calcium level; also recorded: calcium absorption was accelerated by L-arabonic acid, and the effect was rapidly acting and continuous”, the “share of the total amount of administration remained in the cecum and colon” value ([6]; after 24 hours, oral 5 mmol/kg) was “About 30%” and the “absorption in the small intestine” value ([6]; from 2 to 6 hours after oral administration) was “hardly absorbed in the small intestine”. For the same compound, the “Residual ratio after administration, Cecum, After 2 hrs” value ([6]; oral 5 mmol/kg L-arabonic acid, cecum, 2 hrs) was 47.7 ± 3.39%, the “Residual ratio after administration, Cecum, After 6 hrs” value ([6]; oral 5 mmol/kg L-arabonic acid, cecum, 6 hrs) was 60.6 ± 3.26% and the “Residual ratio after administration, Cecum, After 24 hrs” value ([6]; oral 5 mmol/kg L-arabonic acid, cecum, 24 hrs) was 25.9 ± 7.81%. The “Residual ratio after administration, Colon, After 2 hrs” value ([6]; oral 5 mmol/kg L-arabonic acid, colon, 2 hrs) was 0.1 ± 0.14%, the “Residual ratio after administration, Colon, After 6 hrs” value ([6]; oral 5 mmol/kg L-arabonic acid, colon, 6 hrs) was 7.4 ± 2.35% and the “Residual ratio after administration, Colon, After 24 hrs” value ([6]; oral 5 mmol/kg L-arabonic acid, colon, 24 hrs) was 1.9 ± 0.37%. The “Residual ratio after administration, Small intestine, After 2 hrs” value ([6]; oral 5 mmol/kg L-arabonic acid, small intestine, 2 hrs) was 23.0 ± 3.71%, the “Residual ratio after administration, Small intestine, After 6 hrs” value ([6]; oral 5 mmol/kg L-arabonic acid, small intestine, 6 hrs) was 3.3 ± 2.50% and the “Residual ratio after administration, Small intestine, After 24 hrs” value ([6]; oral 5 mmol/kg L-arabonic acid, small intestine, 24 hrs) was 0.8 ± 0.20%. For the same compound, the “Residual ratio after administration, Stomach, After 2 hrs” value ([6]; oral 5 mmol/kg L-arabonic acid, stomach, 2 hrs) was 0%, the “Residual ratio after administration, Stomach, After 6 hrs” value ([6]; oral 5 mmol/kg L-arabonic acid, stomach, 6 hrs) was 0% and the “Residual ratio after administration, Stomach, After 24 hrs” value ([6]; oral 5 mmol/kg L-arabonic acid, stomach, 24 hrs) was 0%. The “L-arabonic acid in excreted feces” value ([6]; oral 5 mmol/kg, feces up to 24 hours) was “detected from the excreted feces”, the “unaltered L-arabonic acid in urine” value ([6]; oral 5 mmol/kg, urine up to 24 hours) was “detected from the urine, even in small amount” and the “level of L-arabonic acid in the blood” value ([6]; throughout the test period, oral 5 mmol/kg) was “below the detection limit”. The LD50 [7] was “about 10 g/kg”.

With `O=C([O-])[C@H](O)[C@@H](O)[C@@H](O)CO.[Na+]` [sodium L-arabonate] the “Ca level in blood, 0 min” value [4] was 4.30 ± 0.121 mg/dL, the “Ca level in blood, 2 hrs” value [4] was 5.59 ± 0.232 mg/dL and the “Ca level in blood, 4 hrs” value [4] was 5.62 ± 0.212 mg/dL. The “change in blood calcium level” value [4] was “significant increase in the blood calcium level”.
